Data set [1] has as its system Pneumocystis. Kind of data set: Pneumocystis ATP detection assay. In kind it is cell-based, P. carinii. Conditions: for IC50: concentration reducing ATP content of Pneumocystis populations by 50% vs untreated controls, 48 hours exposure (Table 1 title); for Anti-Pneumocystis Activity: semi-qualitative scale from highly active to no activity, based on IC50. From the text: An ATP assay system (Cushion, Chen et al., 1997; Chen & Cushion, 1994; Collins & Cushion, 2001) was used to evaluate bisbenzamidine analogues as potential therapeutic targets for treatment of pneumonia, particularly that caused by species in the genus Pneumocystis. […]. Development of these compounds could provide new and novel treatment choices for Pneumocystis pneumonia.
A series of novel bisbenzamidines linked by either a rigid (for instance, a phenylene diamide) or a flexible (for instance, a propyl diamide) core are described. Such compounds may be used for the treatment of infections, such as pneumonia and for instance, pneumonia caused by Pneumocystis.
The structure-activity relationships for the piperazine-linked bisbenzamidines and the toxicities of each compound in three different mammalian cell lines are shown in the following tables. Compounds are ranked in order of the lowest concentration necessary to reduce the ATP content of Pneumocystis populations by 50% (i.e., the IC50) compared to untreated control populations. Note that the IC50 values are expressed on a microgram per milliliter and micromolar basis. […];

Data set [2] deals with Calf thymus DNA. Nature of the data set: DNA Binding ΔTm, calf thymus.
The subject of data set [3] is Poly (dA-dT). Kind of data set: DNA Binding ΔTm, Poly (dA-dT).
Data set [4] deals with A549 lung epithelial cells.
From the text: (§1) Two transformed cell lines derived from two different organ systems and a primary cell line were chosen for evaluation of the relative toxicity of each compound. […] The Hep-G2 cell line is an epithelial cell line derived from a human hepatocellular carcinoma, and WI-38 is a human diploid cell line derived from normal embryonic (3 months of gestation) lung tissue.
Data set [5] has as its system WI-38. Nature of the data set: toxicity to WI-38 cell line (ATP system).
From the text: as §1

In brackets after ≈: the same amount, converted by molar mass. Read-outs that look alike come from different tables or passages of the source.

One may read the IC50 as the concentration needed to halve the response being measured. Low readings indicate higher potency, high ones lower potency.

Take `N=C(N)c1ccc(OCCCCCOc2ccc(C(=N)N)cc2)cc1` [Pentamidine, reference compound]: in data set [1], the IC50 amounted to 0.3 µg/mL (≈ 0.881 µM) and the “Anti-Pneumocystis Activity” value is reported as “marked”. Also, the “DNA Binding ΔTm Calf thymus” value in data set [2] is 11.1 °C. Also, the “DNA Binding ΔTm Poly (dA-dT)” value in data set [3] came out at 20.6 °C.

Take `CCCCCNC(=N)c1ccc(N2CCN(c3ccc(C(=N)NCCCCC)cc3)CC2)cc1` [compound 2, 4,4′-(1,4-piperazinediyl)bis(N-pentylbenzenecarboximidamide)]: in data set [1], the “Anti-Pneumocystis Activity” value was “Highly Active”. In data set [2], the “DNA Binding ΔTm Calf thymus” value was found to be 16.9 °C. The “DNA Binding ΔTm Poly (dA-dT)” value in data set [3] came to 22.5 °C.

Take `CCCCCCNC(=N)c1ccc(N2CCN(c3ccc(C(=N)NCCCCCC)cc3)CC2)cc1` [compound 3, 4,4′-(1,4-piperazinediyl)bis(N-hexylbenzenecarboximidamide)]: the “Anti-Pneumocystis Activity” value in data set [1] was “Highly Active”. The “DNA Binding ΔTm Calf thymus” value in data set [2] was 10.7 °C. Besides, the “DNA Binding ΔTm Poly (dA-dT)” value in data set [3] is 10.1 °C.

Consider `CCCCCCCNC(=N)c1ccc(N2CCN(c3ccc(C(=N)NCCCCCCC)cc3)CC2)cc1` [compound 5, 4,4′-(1,4-piperazinediyl)bis(N-heptylbenzenecarboximidamide)], for which the “Anti-Pneumocystis Activity” value in data set [1] is given as “Very Marked”. In addition, the “DNA Binding ΔTm Calf thymus” value in data set [2] worked out at 8.7 °C. Moreover, in data set [3], the “DNA Binding ΔTm Poly (dA-dT)” value amounted to 8.5 °C. Besides, in data set [4], the “toxicity in A549 line” value is “without toxicity”. Also, the “toxicity in WI-38 line” value in data set [5] is “without toxicity”.

As to `CCCCCCCCNC(=N)c1ccc(N2CCN(c3ccc(C(=N)NCCCCCCCC)cc3)CC2)cc1` [compound 11, 4,4′-(1,4-piperazinediyl)bis(N-octylbenzenecarboximidamide)], the “Anti-Pneumocystis Activity” value in data set [1] is on record as “Marked”. Further, the “DNA Binding ΔTm Calf thymus” value in data set [2] came out at 4.2 °C.

For `CCCCCCCCCNC(=N)c1ccc(N2CCN(c3ccc(C(=N)NCCCCCCCCC)cc3)CC2)cc1` [compound 14, 4,4′-(1,4-piperazinediyl)bis(N-nonylbenzenecarboximidamide)], the “Anti-Pneumocystis Activity” value in data set [1] is recorded as “Marked”. Further, the “DNA Binding ΔTm Calf thymus” value in data set [2] is 1.3 °C. Moreover, in data set [3], the “DNA Binding ΔTm Poly (dA-dT)” value stood at 2.7 °C.

With `CCCCCCCCCCCCNC(=N)c1ccc(N2CCN(c3ccc(C(=N)NCCCCCCCCCCCC)cc3)CC2)cc1` [compound 15, 4,4′-(1,4-piperazinediyl)bis(N-dodecylbenzenecarboximidamide)], in data set [1], the “Anti-Pneumocystis Activity” value is “Marked”. Besides, in data set [2], the “DNA Binding ΔTm Calf thymus” value turned out to be 0.6 °C. Further, the “DNA Binding ΔTm Poly (dA-dT)” value in data set [3] was 0.0 °C. Besides, the “toxicity in A549 line” value in data set [4] (human) is “not the A549 line”.

With `CCNC(=N)c1ccc(N2CCN(c3ccc(C(=N)NCC)cc3)CC2)cc1` [compound 16, 4,4′-(1,4-piperazinediyl)bis(N-ethylbenzenecarboximidamide)], in data set [1], inhibition was half-maximal at 0.542 µg/mL (≈ 1.43 µM) (IC50) and the “Anti-Pneumocystis Activity” value is listed as “marked”. For the same compound, in data set [1] (listed as —C2H5), the “Anti-Pneumocystis Activity” value is on record as “Marked”. Further, in data set [2], the “DNA Binding ΔTm Calf thymus” value is 15.3 °C. Further, the “DNA Binding ΔTm Poly (dA-dT)” value in data set [3] worked out at 18.6 °C.

Turning to `CCCCCCCCCCNC(=N)c1ccc(N2CCN(c3ccc(C(=N)NCCCCCCCCCC)cc3)CC2)cc1` [compound 18, 4,4′-(1,4-piperazinediyl)bis(N-decylbenzenecarboximidamide)], the “Anti-Pneumocystis Activity” value in data set [1] was “Marked”. Moreover, the “DNA Binding ΔTm Calf thymus” value in data set [2] worked out at 1.3 °C.
